{"source": "patent US9233169B2", "about": "“Oligomer-bis-chromonyl compound conjugates” (NEKTAR THERAPEUTICS, priority 2008, dated 2016)", "origin": "cited, not measured here", "tested_on": "mast cell degranulation", "conditions": "monkey gingiva; Nuki et al. (1975)"}
{"smiles": "O=C([O-])c1cc(=O)c2c(OCC(O)COc3cccc4oc(C(=O)[O-])cc(=O)c34)cccc2o1.[Na+].[Na+]", "note": "[Cromonlyn sodium, disodium 5,5′-((2-hydroxytrimethylene)dioxy)bis(4-oxo-4H-1 benzopyran-2-carboxylate)]", "values": [{"measurement": "inhibition of mast cell degranulation", "result": "inhibit mast cell degranulation"}]}
